Experimental data: patent publication US20230278995A1, “1,3,4-OXADIAZOLE DERIVATIVE COMPOUNDS AS HISTONE DEACETYLASE 6 INHIBITOR, AND THE PHARMACEUTICAL COMPOSITION COMPRISING THE SAME” (CHONG KUN DANG PHARMACEUTICAL CORP., priority 2020, published 2023)

Legend:
[1] = target: T1, human recombinant HDAC6 (Homo sapiens, UniProt Q9UBN7); test: HDAC enzyme activity inhibition assay (HDAC Fluorimetric Drug Discovery Kit), HDAC6; type: biochemical; conditions: for HDAC6 selectivity (fold): HDAC1 vs HDAC6; for IC50: human recombinant HDAC6, same protocol as HDAC1
T1 construct: purchased Calbiochem Inc. 382180
T1 sequence (Q9UBN7 1-1215): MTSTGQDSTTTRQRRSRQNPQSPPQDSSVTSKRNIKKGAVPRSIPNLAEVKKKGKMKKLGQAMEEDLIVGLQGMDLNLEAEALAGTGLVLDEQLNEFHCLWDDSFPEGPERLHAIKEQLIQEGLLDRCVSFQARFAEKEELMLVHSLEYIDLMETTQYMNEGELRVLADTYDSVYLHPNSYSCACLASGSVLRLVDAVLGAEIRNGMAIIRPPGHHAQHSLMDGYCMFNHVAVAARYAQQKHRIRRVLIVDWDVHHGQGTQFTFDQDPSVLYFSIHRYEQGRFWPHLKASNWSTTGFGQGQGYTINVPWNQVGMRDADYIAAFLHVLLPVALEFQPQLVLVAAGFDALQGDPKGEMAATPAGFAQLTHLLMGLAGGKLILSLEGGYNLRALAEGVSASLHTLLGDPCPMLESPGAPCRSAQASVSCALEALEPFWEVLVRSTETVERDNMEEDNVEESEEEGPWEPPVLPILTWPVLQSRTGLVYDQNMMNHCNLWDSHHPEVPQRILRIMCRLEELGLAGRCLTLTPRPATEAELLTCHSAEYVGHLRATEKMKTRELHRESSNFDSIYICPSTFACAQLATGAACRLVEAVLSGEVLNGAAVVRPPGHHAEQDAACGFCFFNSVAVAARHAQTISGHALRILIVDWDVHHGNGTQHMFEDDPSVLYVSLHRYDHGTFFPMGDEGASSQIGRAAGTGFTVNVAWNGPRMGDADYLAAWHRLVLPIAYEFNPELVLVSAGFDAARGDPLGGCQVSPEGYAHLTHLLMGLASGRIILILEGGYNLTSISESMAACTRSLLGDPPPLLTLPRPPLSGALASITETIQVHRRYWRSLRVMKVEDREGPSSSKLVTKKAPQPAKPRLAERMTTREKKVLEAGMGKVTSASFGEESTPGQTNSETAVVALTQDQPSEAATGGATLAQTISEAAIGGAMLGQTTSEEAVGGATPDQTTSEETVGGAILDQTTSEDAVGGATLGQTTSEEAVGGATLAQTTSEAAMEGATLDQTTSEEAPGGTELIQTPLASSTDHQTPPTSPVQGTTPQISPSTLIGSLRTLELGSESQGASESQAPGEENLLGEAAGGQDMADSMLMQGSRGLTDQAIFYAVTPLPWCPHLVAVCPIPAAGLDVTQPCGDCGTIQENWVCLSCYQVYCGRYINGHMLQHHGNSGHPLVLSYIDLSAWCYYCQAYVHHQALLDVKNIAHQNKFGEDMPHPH
Protocol: (§1) For the HDAC1 enzyme activity test, human recombinant HDAC1 (BML-SE456) was used as an enzyme source and Fluor de Lys©-SIRT1 (BNL-K1177) was used as a substrate. After dispensing 5-fold diluted compounds into a 96-well plate, 0.3 μg of enzyme and 10 μM substrate were added to each well of the plate and allowed to react at 30° C. for 60 minutes. Next, Fluor de Lys© Developer II (BML-K1176) was added and reacted for 30 minutes to complete the reaction, and then the fluorescence values (Ex 360, Em 460) were measured using a multi-plate reader (Flexstation 3, Molecular Device). The HDAC6 enzymes were tested using human recombinant HDAC6 (382180) from Calbiochem Inc., according to the same protocol as the HDAC1 enzyme activity test method. With respect to the final result values, respective IC50 values were calculated using GraphPad Prism 4.0 program (Table 2).

[2] = target: T2, human recombinant HDAC1 (Homo sapiens, UniProt Q13547); test: HDAC enzyme activity inhibition assay (HDAC Fluorimetric Drug Discovery Kit), HDAC1; type: biochemical; conditions: human recombinant HDAC1, Fluor de Lys-SIRT1 substrate, 30° C. 60 minutes
T2 construct: purchased Enzo Life Sciences, Inc. BML-SE456
Protocol: as §1

T2 sequence (Q13547 whole entry): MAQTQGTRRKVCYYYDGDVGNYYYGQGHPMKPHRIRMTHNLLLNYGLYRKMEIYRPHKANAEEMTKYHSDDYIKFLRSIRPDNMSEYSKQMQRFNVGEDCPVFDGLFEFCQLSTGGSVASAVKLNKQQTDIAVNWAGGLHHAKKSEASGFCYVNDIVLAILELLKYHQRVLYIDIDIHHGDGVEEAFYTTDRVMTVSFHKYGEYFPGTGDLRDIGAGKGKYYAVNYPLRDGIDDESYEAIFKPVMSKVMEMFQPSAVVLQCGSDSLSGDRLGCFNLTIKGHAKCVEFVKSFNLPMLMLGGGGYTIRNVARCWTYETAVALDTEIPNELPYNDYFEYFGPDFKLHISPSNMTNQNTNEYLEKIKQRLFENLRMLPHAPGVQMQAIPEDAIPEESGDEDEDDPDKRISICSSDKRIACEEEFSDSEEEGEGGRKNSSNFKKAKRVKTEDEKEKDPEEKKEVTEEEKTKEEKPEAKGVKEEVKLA

| Compound | HDAC6 selectivity (fold) [1] | IC50 [1] [nM] | IC50 [2] [nM] |
| --- | --- | --- | --- |
| O=C(N(Cc1ccc(-c2nnc(C(F)F)o2)cn1)c1cccc(F)c1)C1(F)CN(C2CN(C3CCOCC3)C2)C1 [Compound 3399, N-((5-(5-(difluoromethyl)-1,3,4-oxadiazol-2-yl)pyridin-2-yl)methyl)-3-fluoro-N-(3-fluorophenyl)-1′-(tetrahydro-2H-pyran-4-yl)-[1,3′-biazetidine]-3-carboxamide] | 1,569 fold | 20.1 | 31500 |
| CC(=O)N1CCC(F)(C(=O)N(Cc2ccc(-c3nnc(C(F)F)o3)cc2F)c2ccccc2)CC1 [Compound 3438, 1-acetyl-N-(4-(5-(difluoromethyl)-1,3,4-oxadiazol-2-yl)-2-fluorobenzyl)-4-fluoro-N-phenylpiperidine-4-carboxamide] | 302 fold | 166 | > 50000 |
| O=C(N(Cc1ccc(-c2nnc(C(F)F)o2)cc1F)c1ccccc1)C1(F)CCNCC1 [Compound 2865, N-(4-(5-(difluoromethyl)-1,3,4-oxadiazol-2-yl)-2-fluorobenzyl)-4-fluoro-N-phenylpiperidine-4-carboxamide 2,2,2-trifluoroacetate] | 30 fold | 1000 | > 30000 |
| CC(C)CC(=O)N1CC(F)(C(=O)N(Cc2ccc(-c3nnc(C(F)F)o3)cn2)c2cccc(F)c2)C1 [Compound 3166, N-((5-(5-(difluoromethyl)-1,3,4-oxadiazol-2-yl)pyridin-2-yl)methyl)-3-fluoro-N-(3-fluorophenyl)-1-(3-methylbutanoyl)azetidine-3-carboxamide] | 741 fold | 67.4 | > 50000 |
| CC(C)CN1CC(N2CC(F)(C(=O)N(Cc3ccc(-c4nnc(C(F)F)o4)cn3)c3cccc(F)c3)C2)C1 [Compound 3223, N-((5-(5-(difluoromethyl)-1,3,4-oxadiazol-2-yl)pyridin-2-yl)methyl)-3-fluoro-N-(3-fluorophenyl)-1′-isobutyl-[1,3′-biazetidine]-3-carboxamide] | 1,424 fold | 35.1 | > 50000 |
| CN1CC(N2CC(F)(C(=O)N(Cc3ccc(-c4nnc(C(F)F)o4)cn3)c3ccccc3)C2)C1 [Compound 3105, N-((5-(5-(difluoromethyl)-1,3,4-oxadiazol-2-yl)pyridin-2-yl)methyl)-3-fluoro-1′-methyl-N-phenyl-[1,3′-biazetidine]-3-carboxamide] | 771 fold | 64.8 | > 50000 |
| CCCCN1CCC(N2CC(F)(C(=O)N(Cc3ccc(-c4nnc(C(F)F)o4)cn3)c3ccccc3)C2)CC1 [Compound 3113, 1-(1-butylpiperidin-4-yl)-N-((5-(5-(difluoromethyl)-1,3,4-oxadiazol-2-yl)pyridin-2-yl)methyl)-3-fluoro-N-phenylazetidine-3-carboxamide] | 1,543 fold | 32.4 | > 50000 |
| O=C(C1CCCC1)N1CC(F)(C(=O)N(Cc2ccc(-c3nnc(C(F)F)o3)cn2)c2cccc(F)c2)C1 [Compound 3169, 1-(cyclopentanecarbonyl)-N-((5-(5-(difluoromethyl)-1,3,4-oxadiazol-2-yl)pyridin-2-yl)methyl)-3-fluoro-N-(3-fluorophenyl)azetidine-3-carboxamide] | 2,808 fold | 17.8 | > 50000 |
| CCCCN1CCC(N2CC(F)(C(=O)N(Cc3ccc(-c4nnc(C(F)F)o4)cn3)c3cccc(F)c3)C2)CC1 [Compound 3402, 1-(1-butylpiperidin-4-yl)-N-((5-(5-(difluoromethyl)-1,3,4-oxadiazol-2-yl)pyridin-2-yl)methyl)-3-fluoro-N-(3-fluorophenyl)azetidine-3-carboxamide] | 2,403 fold | 20.8 | > 50000 |
| CC(C)CN1CC(F)(C(=O)N(Cc2ccc(-c3nnc(C(F)F)o3)cn2)c2ccccc2)C1 [Compound 3004, N-((5-(5-(difluoromethyl)-1,3,4-oxadiazol-2-yl)pyridin-2-yl)methyl)-3-fluoro-1-isobutyl-N-phenylazetidine-3-carboxamide] | 917 fold | 28.4 | 26100 |
| CC(CO)N1CC(F)(C(=O)N(Cc2ccc(-c3nnc(C(F)F)o3)cn2)c2cccc(F)c2)C1 (stereo not drawn) [Compound 3094, N-((5-(5-(difluoromethyl)-1,3,4-oxadiazol-2-yl)pyridin-2-yl)methyl)-3-fluoro-N-(3-fluorophenyl)-1-(1-hydroxypropan-2-yl)azetidine-3-carboxamide] | 1,901 fold | 26.3 | > 50000 |

Continued, values first:

| HDAC6 selectivity (fold) [1] | IC50 [1] [nM] | IC50 [2] [nM] | Compound |
| --- | --- | --- | --- |
| 2,348 fold | 19 | 44600 | CC(C)CN1CC(N2CCC(F)(C(=O)N(Cc3ccc(-c4nnc(C(F)F)o4)cn3)c3cccc(F)c3)CC2)C1 [Compound 3392, N-((5-(5-(difluoromethyl)-1,3,4-oxadiazol-2-yl)pyridin-2-yl)methyl)-4-fluoro-N-(3-fluorophenyl)-1-(1-isobutylazetidine-3-yl)piperidine-4-carboxamide] |
| 1,157 fold | 43.2 | > 50000 | O=C(N(Cc1ccc(-c2nnc(C(F)F)o2)cn1)c1ccccc1)C1(F)CN(C2CCOCC2)C1 [Compound 3000, N-((5-(5-(difluoromethyl)-1,3,4-oxadiazol-2-yl)pyridin-2-yl)methyl)-3-fluoro-N-phenyl-1-(tetrahydro-2H-pyran-4-yl)azetidine-3-carboxamide] |
| 1,000 fold | 50 | > 50000 | CCN1CC(F)(C(=O)N(Cc2ccc(-c3nnc(C(F)F)o3)cn2)c2ccccc2)C1 [Compound 3001, N-((5-(5-(difluoromethyl)-1,3,4-oxadiazol-2-yl)pyridin-2-yl)methyl)-1-ethyl-3-fluoro-N-phenylazetidine-3-carboxamide] |
| 1,374 fold | 20 | 27500 | O=C(N(Cc1ccc(-c2nnc(C(F)F)o2)cn1)c1cccc(F)c1)C1(F)CN(C2CN(C3CCCCC3)C2)C1 [Compound 3398, 1′-cyclohexyl-N-((5-(5-(difluoromethyl)-1,3,4-oxadiazol-2-yl)pyridin-2-yl)methyl)-3-fluoro-N-(3-fluorophenyl)-[1,3′-biazetidine]-3-carboxamide] |
| 911 fold | 28.8 | 26300 | CC(C)CN1CCC(N2CC(F)(C(=O)N(Cc3ccc(-c4nnc(C(F)F)o4)cn3)c3cccc(F)c3)C2)CC1 [Compound 3403, N-((5-(5-(difluoromethyl)-1,3,4-oxadiazol-2-yl)pyridin-2-yl)methyl)-3-fluoro-N-(3-fluorophenyl)-1-(1-isobutylpiperidine-4-yl)azetidine-3-carboxamide] |
| 649 fold | 77 | > 50000 | O=C(N(Cc1ccc(-c2nnc(C(F)F)o2)cn1)c1ccccc1)C1(F)CN(CC2CCCCC2)C1 [Compound 3156, 1-(cyclohexylmethyl)-N-((5-(5-(difluoromethyl)-1,3,4-oxadiazol-2-yl)pyridin-2-yl)methyl)-3-fluoro-N-phenylazetidine-3-carboxamide] |
| 57 fold | 877 | > 50000 | CC(C)(C)OC(=O)N1CC(F)(C(=O)N(Cc2ccc(-c3nnc(C(F)(F)F)o3)cn2)c2cccc(F)c2)C1 [Compound 6890, tert-butyl 3-fluoro-3-((3-fluorophenyl)((5-(5-(trifluoromethyl)-1,3,4-oxadiazol-2-yl)pyridin-2-yl)methyl)carbamoyl)azetidine-1-carboxylate] |
